Among the data in patent US11635429B2 (priority 2019, dated 2023) are Cross reactivity values, retold here.

In this assay the test system is anti-diacetoxyscirpenol monoclonal antibody secreted by hybridoma cell strain DAS5G11E7. Format: binding, mouse.
The compound `C[C@@H]1Cc2c(Cl)cc(C(=O)N[C@@H](Cc3ccccc3)C(=O)O)c(O)c2C(=O)O1` [OTA, ochratoxin] registered a Cross reactivity of less than 0.01%. Then HT-2 toxin, with less than 0.01%. The same measure for 3-acetyldeoxynivalenol [3-acetyl-DON]: less than 0.01%; for `CC1=CC2O[C@@H]3[C@H](O)C[C@](C)(C2(CO)C(O)C1=O)[C@]31CO1` (stereo partly shown) [DON, vomitoxin]: less than 0.01%.
